Where two headings read alike, the source gives them in different places.
Molecular target: T1, mouse TMEM16A mutant S517A (Mus musculus, UniProt Q8BHY3, S517A)
T1 construct: expressed in transfected cells; host or cells: HEK293T
T1 sequence (Q8BHY3 1-960 S517A): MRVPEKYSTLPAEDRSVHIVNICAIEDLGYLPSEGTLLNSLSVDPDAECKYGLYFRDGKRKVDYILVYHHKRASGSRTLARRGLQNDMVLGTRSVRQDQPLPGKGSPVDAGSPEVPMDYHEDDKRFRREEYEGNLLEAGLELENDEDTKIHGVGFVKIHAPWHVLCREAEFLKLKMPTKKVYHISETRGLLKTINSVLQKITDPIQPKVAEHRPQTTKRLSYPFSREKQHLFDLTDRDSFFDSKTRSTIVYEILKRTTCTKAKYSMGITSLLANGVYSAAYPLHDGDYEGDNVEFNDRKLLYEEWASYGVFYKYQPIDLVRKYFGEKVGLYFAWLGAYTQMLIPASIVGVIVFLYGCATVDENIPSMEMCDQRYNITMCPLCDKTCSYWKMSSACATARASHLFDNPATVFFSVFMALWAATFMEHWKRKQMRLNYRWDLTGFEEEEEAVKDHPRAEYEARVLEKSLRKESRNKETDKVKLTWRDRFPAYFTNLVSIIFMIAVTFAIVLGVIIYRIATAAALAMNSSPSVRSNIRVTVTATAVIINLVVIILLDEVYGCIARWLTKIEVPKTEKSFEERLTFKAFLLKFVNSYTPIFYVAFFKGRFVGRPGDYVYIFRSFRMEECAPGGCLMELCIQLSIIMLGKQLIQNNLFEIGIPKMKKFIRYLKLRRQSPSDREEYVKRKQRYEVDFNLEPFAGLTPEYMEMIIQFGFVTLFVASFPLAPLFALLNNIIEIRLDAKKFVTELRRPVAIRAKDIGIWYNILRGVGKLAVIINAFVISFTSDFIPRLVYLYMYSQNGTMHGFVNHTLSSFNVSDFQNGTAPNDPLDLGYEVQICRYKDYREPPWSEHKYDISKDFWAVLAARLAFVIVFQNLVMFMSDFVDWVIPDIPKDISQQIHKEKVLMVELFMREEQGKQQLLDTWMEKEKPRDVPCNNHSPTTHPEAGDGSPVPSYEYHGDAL
Experiment: Inside-out patch recording of 1PBC block, mutant S517A
Format: cell-based
Conditions: for remaining activity at 1 µM: 1PBC 1; for remaining activity at 1 µM / remaining activity at 3 µM / remaining activity at 10 µM / remaining activity at 30 µM / remaining activity at 100 µM: read-out: fraction of unblocked current; for remaining activity at 3 µM: 1PBC 3; for remaining activity at 10 µM: 1PBC 10; for remaining activity at 30 µM: 1PBC 30; for remaining activity at 100 µM: 1PBC 100
Procedure: HEK293T cells (ATCC CRL-1573) were maintained in Dulbecco’s modified Eagle’s medium (DMEM; Sigma-Aldrich) supplemented with 10 U ml^−1 penicillin, 0.1 mg ml^−1 streptomycin (Sigma-Aldrich), 2 mM L-glutamine (Sigma-Aldrich), and 10% FBS (Sigma-Aldrich) in a humidified atmosphere containing 5% CO2 at 37 °C. HEK293S GnTI^− cells (ATCC CRL-3022) were maintained in HyClone HyCell TransFx-H medium (GE Healthcare) supplemented with 10 U ml^−1 penicillin, 0.1 mg ml^−1 streptomycin, 4 mM L-glutamine, 0.15% poloxamer 188 (Sigma-Aldrich), and 1% FBS in an atmosphere containing 5% CO2 at 185 rpm at 37 °C. The ac splice variant of mouse TMEM16A (UniProt ID: Q8BHY3), mouse TMEM16B (UniProt ID: Q8CFW1), or mouse TMEM16F (UniProt ID: Q6P9J9) bearing a 3C cleavage site, a Venus YFP, a Myc tag, and a Streptavidin-binding peptide (SBP) downstream of the open reading frame in a modified pcDNA3.1 vector (Invitrogen) were used as described previously[21],[31]. Mutations were introduced using a modified QuikChange method[58] and were verified by sequencing.
HEK293T cells were transfected with 3–4 μg DNA per 6 cm Petri dish using the calcium phosphate co-precipitation method and were used within 24–96 h after transfection. Recordings were performed on inside-out patches excised from HEK293T cells expressing the construct of interest. Patch pipettes were pulled from borosilicate glass capillaries (O.D. 1.5 mm, I.D. 0.86 mm, Sutter Instrument) and were fire-polished with a microforge (Narishige) before use. Pipette resistance was typically 3–8 MΩ when filled with the recording solutions detailed below. Seal resistance was typically 4 GΩ or higher. Voltage-clamp recordings were made using Axopatch 200B, Digidata 1550, and Clampex 10.7 (Molecular Devices). Analog signals were filtered with the in-built 4-pole Bessel filter at 10 kHz and were digitized at 20 kHz. Solution exchange was achieved using a gravity-fed system through a theta glass pipette mounted on an ultra-fast piezo-driven stepper (Siskiyou). […] All recordings were performed at 20 °C.
A symmetrical ionic condition was used throughout. Stock solution with Ca^2+-EGTA contained 150 mM NaCl, 5.99 mM Ca(OH)2, 5 mM EGTA, and 10 mM HEPES at pH 7.40. Stock solution with EGTA contained 150 mM NaCl, 5 mM EGTA, and 10 mM HEPES at pH 7.40. Free Ca^2+ concentrations were adjusted by mixing the stock solutions at the required ratios calculated using the WEBMAXC program (http://web.stanford.edu/~cpatton/webmaxcS.htm). Patch pipettes were filled with the stock solution with Ca^2+-EGTA, which has a free Ca^2+ concentration of 1 mM. 1PBC (ChemBridge) stock was reconstituted in anhydrous DMSO (Sigma-Aldrich) at 100 mM and stored at −20 °C. Working solutions with 1PBC were prepared by serial dilution. Unless otherwise stated, experiments were performed at a saturating Ca^2+ concentration as shown in Supplementary Table 1 and the primary data were corrected for current rundown as described previously[21],[25].
Concentration-response relations, obtained from the ratio of the I-V plots before and after the application of the blocker, were fitted to the Hill equation,1 I/Imax=1/1+IC50/[blocker]^h where I/Imax is the normalized current responses, IC50 defines the concentration at which inhibition is at its half-maximum, and h is the Hill coefficient.

N#Cc1c(C(F)(F)F)cc(O)n2c1nc1ccccc12 [1PBC] gave an IC50 (0 mV, 2 µM Ca2+) of 4.87 µM, a remaining activity at 1 µM (0 mV) of 80.6% and a remaining activity at 1 µM (20 mV) of 76.4%. For the same compound, the remaining activity at 1 µM (40 mV) was 72.2%, the remaining activity at 1 µM (60 mV) was 68.1% and the remaining activity at 1 µM (80 mV) was 65.8%. It also gave a remaining activity at 1 µM (100 mV) of 66.4%, a remaining activity at 1 µM (120 mV) of 68.4% and a remaining activity at 1 µM (140 mV) of 72%. It also gave a remaining activity at 1 µM (-20 mV) of 84.8%, a remaining activity at 1 µM (-40 mV) of 89.1% and a remaining activity at 1 µM (-60 mV) of 92.3%. It also gave a remaining activity at 1 µM (-80 mV) of 93.4%, a remaining activity at 1 µM (-100 mV) of 95% and a remaining activity at 1 µM (-120 mV) of 95.3%. The remaining activity at 1 µM (-140 mV) was 96.6%, the remaining activity at 3 µM (0 mV) was 62.1% and the remaining activity at 3 µM (20 mV) was 56.5%. It also gave a remaining activity at 3 µM (40 mV) of 50.9%, a remaining activity at 3 µM (60 mV) of 46.8% and a remaining activity at 3 µM (80 mV) of 43.5%. For the same compound, the remaining activity at 3 µM (100 mV) was 42.4%, the remaining activity at 3 µM (120 mV) was 44.1% and the remaining activity at 3 µM (140 mV) was 49.1%. For the same compound, the remaining activity at 3 µM (-20 mV) was 67.7%, the remaining activity at 3 µM (-40 mV) was 73.3% and the remaining activity at 3 µM (-60 mV) was 77.2%. For the same compound, the remaining activity at 3 µM (-80 mV) was 82.9%, the remaining activity at 3 µM (-100 mV) was 86.4% and the remaining activity at 3 µM (-120 mV) was 88.8%. It also gave a remaining activity at 3 µM (-140 mV) of 90.8%, a remaining activity at 10 µM (0 mV) of 33.3% and a remaining activity at 10 µM (20 mV) of 28.2%. It also gave a remaining activity at 10 µM (40 mV) of 24.2%, a remaining activity at 10 µM (60 mV) of 21.4% and a remaining activity at 10 µM (80 mV) of 19.4%. For the same compound, the remaining activity at 10 µM (100 mV) was 17.8%, the remaining activity at 10 µM (120 mV) was 18.2% and the remaining activity at 10 µM (140 mV) was 20.6%. For the same compound, the remaining activity at 10 µM (-20 mV) was 38.5%, the remaining activity at 10 µM (-40 mV) was 44.6% and the remaining activity at 10 µM (-60 mV) was 50%. For the same compound, the remaining activity at 10 µM (-80 mV) was 54.7%, the remaining activity at 10 µM (-100 mV) was 59.2% and the remaining activity at 10 µM (-120 mV) was 64.2%. For the same compound, the remaining activity at 10 µM (-140 mV) was 67.7%, the remaining activity at 30 µM (0 mV) was 14.7% and the remaining activity at 30 µM (20 mV) was 12%. For the same compound, the remaining activity at 30 µM (40 mV) was 10.1%, the remaining activity at 30 µM (60 mV) was 9.12% and the remaining activity at 30 µM (80 mV) was 8.68%. It also gave a remaining activity at 30 µM (100 mV) of 8.48%, a remaining activity at 30 µM (120 mV) of 8.95% and a remaining activity at 30 µM (140 mV) of 10.1%. For the same compound, the remaining activity at 30 µM (-20 mV) was 17.4%, the remaining activity at 30 µM (-40 mV) was 20.4% and the remaining activity at 30 µM (-60 mV) was 25.6%. The remaining activity at 30 µM (-80 mV) was 29.2%, the remaining activity at 30 µM (-100 mV) was 33.1% and the remaining activity at 30 µM (-120 mV) was 36.2%. For the same compound, the remaining activity at 30 µM (-140 mV) was 39.2%, the remaining activity at 100 µM (0 mV) was 6.16% and the remaining activity at 100 µM (20 mV) was 4.78%. For the same compound, the remaining activity at 100 µM (40 mV) was 4.43%, the remaining activity at 100 µM (60 mV) was 4.02% and the remaining activity at 100 µM (80 mV) was 3.86%. It also gave a remaining activity at 100 µM (100 mV) of 3.89%, a remaining activity at 100 µM (120 mV) of 3.95% and a remaining activity at 100 µM (140 mV) of 4.21%. It also gave a remaining activity at 100 µM (-20 mV) of 7.53%, a remaining activity at 100 µM (-40 mV) of 8.84% and a remaining activity at 100 µM (-60 mV) of 10.3%. For the same compound, the remaining activity at 100 µM (-80 mV) was 12.6%, the remaining activity at 100 µM (-100 mV) was 14.7% and the remaining activity at 100 µM (-120 mV) was 17.1%. It also gave a remaining activity at 100 µM (-140 mV) of 19.8%, an IC50 (20 mV, 2 µM Ca2+) of 3.78 µM and an IC50 (40 mV, 2 µM Ca2+) of 3.01 µM. For the same compound, the IC50 (60 mV, 2 µM Ca2+) was 2.51 µM, the “log-fold IC50 (change of mutant vs WT)” value (80 mV) was 0.0426 and the IC50 (80 mV, 2 µM Ca2+) was 2.2 µM. It also gave an IC50 (100 mV, 2 µM Ca2+) of 2.14 µM, an IC50 (120 mV, 2 µM Ca2+) of 2.29 µM and an IC50 (140 mV, 2 µM Ca2+) of 2.76 µM. The IC50 (-20 mV, 2 µM Ca2+) was 6.24 µM, the IC50 (-40 mV, 2 µM Ca2+) was 8.08 µM and the IC50 (-60 mV, 2 µM Ca2+) was 10.3 µM. It also gave an IC50 (-80 mV, 2 µM Ca2+) of 12.8 µM, an IC50 (-100 mV, 2 µM Ca2+) of 15.5 µM and an IC50 (-120 mV, 2 µM Ca2+) of 18.4 µM. For the same compound, the IC50 (-140 mV, 2 µM Ca2+) was 21.4 µM, the IC50 (S517A, V 0 mV) was 4.87 µM and the IC50 (S517A, V 20 mV) was 3.78 µM. It also gave an IC50 (S517A, V 40 mV) of 3.01 µM, an IC50 (S517A, V 60 mV) of 2.51 µM and an IC50 (S517A, V 80 mV) of 2.2 µM. The IC50 (S517A, V 100 mV) was 2.14 µM, the IC50 (S517A, V 120 mV) was 2.29 µM and the IC50 (S517A, V 140 mV) was 2.76 µM. It also gave an IC50 (S517A, V -20 mV) of 6.24 µM, an IC50 (S517A, V -40 mV) of 8.08 µM and an IC50 (S517A, V -60 mV) of 10.3 µM. It also gave an IC50 (S517A, V -80 mV) of 12.8 µM, an IC50 (S517A, V -100 mV) of 15.5 µM and an IC50 (S517A, V -120 mV) of 18.4 µM. For the same compound, the IC50 (S517A, V -140 mV) was 21.4 µM.
